Experiments:
[1] = Solubility of L-cystine neutralized with fatty acids, HPLC (Example 5); settings: for Solubility ppm cystine: excess L-cystine in NaOH neutralized with the named acid, equilibrated at least 72 hours, filtered, HPLC, 3 replicas; for pH: pH of the cystine solution neutralized with the named acid
Protocol: Solubility of cystine was determined in the presence of alternative fatty acids. […] The precipitate upon neutralization was equilibrated with saturated solution for at least 72 hours. The solutions were then filtered through 0.45 micrometer PTFE or nylon (for C12) syringe filter and analysed on HPLC for cystine concentration.

[2] = Protocol: Additional samples with decreasing concentration of cystine were prepared to find the solubility limit for cystine in acid soap mixture. Samples in table 2 were prepared by Process A in table 1.
The samples were evaluated under microscope on the hot plate at 80° C.

[3] = remark: listed apart in the source
Protocol: The compositional examples are in the table 3 below. The samples in table 3 were prepared by process C in table 1.
The results in Table 3 illustrate that other ingredients can be added to the inventive compositions, as long as lamellar bilayer liquid crystal or liquid gel structure remains intact.

[4] = cited from earlier work
[5] = Microscopy of cystine crystals recrystallized from high pH solution in hystric acid/KOH acid soap mixtures (Example 1); type: physicochemical
Protocol: The size of crystals can be estimated by microscopy.
The soap/acid emulsions were prepared using hystric acid (55% palmitic acid/45% stearic acid) by melting the hystric acid at 75° C. and adding this melted acid to aqueous phase consisting of KOH. […] Solubilized cystine in high pH solution was then added to the acid/soap mixture as high pH solution. Depending on the procedure of addition, differences in final formulations have been achieved.
Formula A was prepared by dissolving the cystine in hot KOH solution. Melted hystric acid was then added to this hot (75° C.) aqueous solution of cystine, mixed and let cool down to room temperature while mixing. Formula B was prepared by adding the melted hystric acid to hot KOH solution, and adding the high pH solution of cystine while mixing all ingredients at 75° C. Formula C was prepared by adding the melted hystric acid to hot KOH solution, creating thus soap, cooling the soap to 50° C. and then adding the high pH solution of cystine The resulting acid soap mixtures were observed under microscope for the formation of cystine crystals. […] Addition of cystine solution to acid soap mixture at 50-60° C. is preferred as only small particles are formed. At this temperature the majority of acid soap exists in lamellar liquid crystal or lamellar gel with vary narrow aqueous layer creating a restrictive environment for cystine crystal growth. […]

SMILES	Solubility ppm cystine [1] [ppm]	pH [1]	solubility of cystine in the hystric acid acid/soap media [2]	solubility of cystine, minimal concentration [3]	natural solubility of cystine [4] [ppm]	average particle size of cystine ([5]; added from high pH solution to fatty acid-soap lamellar liquid crystal or lamellar gel)	cystine crystal size ([5]; cystine added at 75 C-80° C. when in the form of oil-in-water emulsion)
CCCCCCCC/C=C\CCCCCCCC(=O)O [Oleic acid (C18:1), Oleic acid]	246.8	7.3	–	–	–	–	–
CCCCCCCCCCCC(=O)O [Dodecanoic (C12) with KOH, Dodecanoic]	490.6	7.6	–	–	–	–	–
O=C(O)/C=C\C(=O)O [Maleic]	181.6	6.6	–	–	–	–	–
N[C@@H](CSSC[C@H](N)C(=O)O)C(=O)O [cystine]	–	–	greater than 700 ppm	greater than 600 ppm	100	less than 20 micrometers	greater than 20 micrometers
CCCCCCCCCCCC(=O)O [Dodecanoic (C12) with NaOH, Dodecanoic]	575	7.6	–	–	–	–	–

From patent US11666519B2, “Personal care compositions with cystine” (Conopco, Inc., priority 2016, dated 2023)
